Laboratory results from patent EP1360961A1, “Use of antimicrobial peptides for potentiating the activity of antimicrobial agents” (AM-Pharma B.V., priority 2002, dated 2003).

What was measured:
[1] = test system: fluconazole-resistant C. albicans; assay: In vitro assay for candidacidal activity of hLF-derived peptides and/or fluconazole (co-incubation, CFU count); assay type: cell-based; details: 1×10^6 CFU/ml, 2 h at 37°C; noncandidacidal peptide concentrations; fluconazole 100-200 µg/ml; Fig. 1
Method: • Figure 1 - Candidacidal activity of combinations of noncandidacidal concentrations of hLF(1-11), an N-terminal peptide of human lactoferrin and 200 µg/ml fluconazole (closed bars), 150 µg/ml fluconazole (black dotted bars), 100 µg/ml fluconazole (white dotted bars) or without this triazole (open bars). […] In short, 1×10^6 CFU fluconazole-resistant C. albicans/ml were incubated with combinations of hLF(1-11) and fluconazole for 2 h at 37°C and then the number of surviving Candida was determined microbiologically. […] In short, 1×10^6 CFU Candida/ml were preincubated for 5 min at 37°C with (8 µM) hLF(1-11) or (200 µg/ml) fluconazole, washed and then incubated for 2 h at 37°C with (200 µg/ml) fluconazole or (8 µM) hLF(1-11), respectively. As controls, Candida cells were incubated for 2 h at 37°C with (8 µM) hLF(1-11), (200 µg/ml) fluconazole, the combination of (8 µM) hLF(1-11) and (200 µg/ml) fluconazole or no agent. Results are means plus SD of at least three independent experiments.
Assay for candidacidal activity of hLF-derived peptides and fluconazole. […] After a 2 h incubation at 37°C with hLF peptides and/or fluconazole the number of viable blastoconidia was determined by plating serial dilutions of each sample on Sabouraud agar. Results are expressed as colony forming units (CFU) per ml.

[2] = test system: Fluconazole-resistant C. albicans strain Y01-19; assay: E-test for fluconazole resistance; assay type: cell-based; details: Candida albicans
Method: Fluconazole. Fluconazole (Pfizer Inc. New York, NY) was dissolved at a concentration of 1 mg/ml of dimethylsulfoxide (Fluka Chemie GmbH, Sigma-Aldrich Chemie BV, Zwijndrecht, The Netherlands) and stored at -20°C until use. From this stock solution appropriate concentrations were prepared in 10 mM of sodium phosphate buffer (pH 7.4), further referred to as NaPB. Source of C. albicans strain. Fluconazole-resistant C. albicans strain Y01-19 was purchased from Pfizer (Groton, Conn.). […] Fluconazole resistance (M.I.C.>256 µg/ml) was evaluated using the E-test (Oxoid Unipath Ltd., Basingstoke, UK). Yeasts were cultured overnight in Sabouraud broth (Oxoid) at 37°C and sub-cultured for 2,5 h on a rotary wheel at 37°C.

Structure (SMILES): OC(Cn1cncn1)(Cn1cncn1)c1ccc(F)cc1F [Fluconazole]
- candidacidal activity [1]: without effect
- MIC [2]: > 256 µg/mL
